SMILES strings stand for the structures. A value given as a limit tells only on which side of the number the result lay.

The values below come from patent US9440982B2 (Eolas Therapeutics, Inc., priority 2012, dated 2016).

One experiment deals with T1, OX1 (Homo sapiens, UniProt O43613).
T1 construct: expressed in transfected cells; host or cells: CHO (CHO-OX1, kept under selection antibiotic)
T1 sequence (O43613 1-425): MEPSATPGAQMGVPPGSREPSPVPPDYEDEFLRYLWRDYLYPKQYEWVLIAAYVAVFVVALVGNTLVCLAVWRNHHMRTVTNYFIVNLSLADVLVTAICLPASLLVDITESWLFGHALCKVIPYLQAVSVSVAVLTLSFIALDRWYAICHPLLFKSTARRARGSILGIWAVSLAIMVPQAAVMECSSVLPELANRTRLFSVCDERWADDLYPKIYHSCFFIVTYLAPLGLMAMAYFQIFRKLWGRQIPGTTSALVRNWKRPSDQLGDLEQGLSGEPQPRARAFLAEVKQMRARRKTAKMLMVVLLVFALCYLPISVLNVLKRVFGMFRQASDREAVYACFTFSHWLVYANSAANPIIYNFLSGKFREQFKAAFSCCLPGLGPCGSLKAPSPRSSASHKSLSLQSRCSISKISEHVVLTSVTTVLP
Nature of the experiment: Orexin receptor cell-based functional assay, [Ca2+]i by FLIPR, CHO-OX1 cells. The note with it: CHO-OX1 cells, [Ca2+]i by FLIPR, antagonist dose-range 0.1 nM-10 μM, EC90 of OXA; read-out: OX1. In short, it runs like this: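 CHO cells expressing human OX1 or OX2 loaded with calcium dye plus 2.5 mM probenecid at 37° C (calcium4, 30 min, or calcium6, 2 h), then exposed to compounds (0.1 nM-10 μM) for 30 min. Intracellular Ca2+ measured on FLIPR; antagonist format.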
Consider `Cc1ccc(-c2ccnn2C)c(C(=O)N2CCC[C@@H](C)[C@H]2CNc2ccc(F)cn2)c1` [Example A61, ((2S,3R)-2-(((5-Fluoropyridin-2-yl)amino)methyl)-3-methylpiperidin-1-yl)(5-methyl-2-(1-methyl-1H-pyrazol-5-yl)phenyl)methanone], for which the IC50 was found to be 1100 nM. The same measure, in the same setting: next, `Cc1ccc(-n2cnc(C(F)(F)F)n2)c(C(=O)N2CCC[C@@H](C)[C@H]2CNc2ccc(C#N)cn2)c1` [Example A51, 6-((((2S,3R)-3-Methyl-1-(5-methyl-2-(3-(trifluoromethyl)-1H-1,2,4-triazol-1-yl)benzoyl)piperidin-2-yl)methyl)amino)nicotinonitrile]: greater than 1000 nM; `COc1ccc(-n2nccn2)c(C(=O)N2CCC[C@@H](C)[C@H]2CNc2ncc(C(F)(F)F)cn2)c1F` [Example A339, (2-Fluoro-3-methoxy-6-(2H-1,2,3-triazol-2-yl)phenyl)((2S,3R)-3-methyl-2-(((5-(trifluoromethyl)pyrimidin-2-yl)amino)methyl)piperidin-1-yl)methanone]: 5 nM. Consider `Cc1ccc(-c2cnn(C)c2)c(C(=O)N2CC3CCCC3C2CNc2ccc(C(F)(F)F)cn2)c1` (centres unmarked) [Example A71, (5-Methyl-2-(1-methyl-1H-pyrazol-4-yl)phenyl)(1-(((5-(trifluoromethyl)pyridin-2-yl)amino)methyl)hexahydrocyclopenta[c]pyrrol-2(1H)-yl)methanone], for which the IC50 was determined as 70 nM. Still for that read-out and setting: next, `Cc1ccc(-c2ccnc(C)c2)c(C(=O)N2CCC[C@@H](C)[C@H]2CNc2ccc(F)cn2)c1` [Example A53, ((2S,3R)-2-(((5-Fluoropyridin-2-yl)amino)methyl)-3-methylpiperidin-1-yl)(5-methyl-2-(2-methylpyridin-4-yl)phenyl)methanone]: 670 nM.

For `Cc1ccc(-n2cnc(C(F)(F)F)n2)c(C(=O)N2CCC[C@@H](C)[C@H]2CNc2nc3cc(Cl)ccc3o2)c1` [Example A64, ((2S,3R)-2-(((5-Chlorobenzo[d]oxazol-2-yl)amino)methyl)-3-methylpiperidin-1-yl)(5-methyl-2-(3-(trifluoromethyl)-1H-1,2,4-triazol-1-yl)phenyl)methanone], the IC50 was greater than 1000 nM.

Still in this experiment, the particulars now being: Table 2; CHO-OX1 cells, EC90 of OXA; read-out: IC50 Bioactivity OX1.
Take `NC1CCC(CNC(=O)c2cccc3cccnc23)N(C(=O)c2ccccc2-c2ccccc2)C1` (racemic) [Example 39, N-((5-Amino-1-(biphenylcarbonyl)piperidin-2-yl)methyl)quinoline-8-carboxamide]: the IC50 stood at 30 nM. On to `Cc1ccc(-c2ncco2)c(C(=O)N2CCC[C@@H](C)[C@H]2CNc2ccc(C(F)(F)F)cn2)c1` (racemic) [Example 113, rac-cis-(3-Methyl-2-(((5-(trifluoromethyl)pyridin-2-yl)amino)methyl)piperidin-1-yl)(5-methyl-2-(oxazol-2-yl)phenyl)methanone], for which the IC50 came to 25 nM. For `O=C(NC[C@@H]1C[C@H](F)CN1C(=O)c1ccccc1-c1ccccc1)c1cccc2cccnc12` [Example 5, N-(((2S,4S)-1-(Biphenylcarbonyl)-4-fluoropyrrolidin-2-yl)methyl)quinoline-8-carboxamide], the IC50 is 6 nM. The same measure, in the same setting: in the case of `Cc1ccc(-c2cnc(N3CCN(C)CC3)nc2)c(C(=O)N2CCC[C@@H](C)[C@H]2CNc2ccc(C(F)(F)F)cn2)c1` (racemic) [Example 109, rac-cis-(3-Methyl-2-(((5-(trifluoromethyl)pyridin-2-yl)amino)methyl)piperidin-1-yl)(5-methyl-2-(2-(4-methylpiperazin-1-yl)pyrimidin-5-yl)phenyl)methanone] it was greater than 1000 nM; in that of `O=C(NC[C@@H]1[C@H]2CCCC[C@H]2CN1C(=O)c1ccccc1-c1ccccc1)c1cccc2cccnc12` (racemic) [Example 66, N-(((1S,3aR,7aS)-2-(Biphenylcarbonyl)octahydro-1H-isoindol-1-yl)methyl)quinoline-8-carboxamide], 350 nM; in that of `Cc1ccc(-c2ccc(C)nc2)c(C(=O)N2CCC[C@@H](C)[C@H]2CNc2ccc(C(F)(F)F)cn2)c1` (racemic) [Example 105, rac-cis-(3-Methyl-2-(((5-(trifluoromethyl)pyridin-2-yl)amino)methyl)piperidin-1-yl)(5-methyl-2-(6-methylpyridin-3-yl)phenyl)methanone], 109 nM. The same measure, in the same setting: in the case of `Cc1nc(C(=O)N2CCC[C@@H](C)[C@H]2CNc2ncc(Cl)cn2)c(-c2ccc(F)cc2)s1` (racemic) [Example 82, rac-cis-(2-(((5-Chloropyrimidin-2-yl)amino)methyl)-3-methylpiperidin-1-yl)(5-(4-fluorophenyl)-2-methylthiazol-4-yl)methanone] it was 4 nM; in that of `Cc1nc(C(=O)N2CC(NCCO)CCC2CNC(=O)c2cccc3cccnc23)c(-c2cccc(F)c2)s1` (racemic) [Example 54, N-((1-(5-(3-Fluorophenyl)-2-methylthiazole-4-carbonyl)-5-(2-hydroxyethylamino)piperidin-2-yl)methyl)quinoline-8-carboxamide], 180 nM; in that of `Cc1nc(C(=O)N2CCC[C@@H](C)[C@H]2CNc2ncccc2C(F)(F)F)c(-c2ccc(F)cc2)s1` (racemic) [Example 22, rac-cis-(5-(4-Fluorophenyl)-2-methylthiazol-4-yl)(3-methyl-2-(((3-(trifluoromethyl)pyridin-2-yl)amino)methyl)piperidin-1-yl)methanone], 82 nM. Same read-out and setting: in the case of `Cc1nc(-c2ccccc2)c(C(=O)N2CCC(F)(F)[C@H]2CNC(=O)c2cccc3cccnc23)s1` [Example 133, (R)—N-((3,3-Difluoro-1-(2-methyl-4-phenylthiazole-5-carbonyl)pyrrolidin-2-yl)methyl)quinoline-8-carboxamide] it was 12 nM; in that of `Cc1cnc(NC[C@@H]2[C@H](C)CCCN2C(=O)c2nc(C)sc2-c2ccc(F)cc2)nc1` (racemic) [Example 83, rac-cis-(3-Methyl-2-(((5-methylpyrimidin-2-yl)amino)methyl)piperidin-1-yl)(5-(4-fluorophenyl)-2-methylthiazol-4-yl)methanone], 30 nM.

Turning to `Cc1nc(C(=O)N2C[C@H]3CCC[C@H]3C2COc2nc3ccccc3o2)c(-c2ccc(F)cc2)s1` (mixture of isomers) [Example 102, (1-((Benzo[d]oxazol-2-yloxy)methyl)hexahydrocyclopenta[c]pyrrol-2(1H)-yl)(5-(4-fluorophenyl)-2-methylthiazol-4-yl)methanone], the IC50 is greater than 1000 nM.

`Cc1nc(-c2ccccc2)c(C(=O)N2C(C)CCCC2CNC(=O)c2cccc3cccnc23)s1` (racemic) [Example 29, rac-N-((6-Methyl-1-(2-methyl-4-phenylthiazole-5-carbonyl)piperidin-2-yl)methyl)quinoline-8-carboxamide]: the IC50 is 200 nM. On the same count and under the same terms, in the case of `Cc1nc(C(=O)N2CCC[C@@H](C)[C@H]2CNc2ccc(Cl)cn2)c(-c2ccc(F)cc2)s1` (racemic) [Example 18, rac-cis-(2-(((5-Chloropyridin-2-yl)amino)methyl)-3-methylpiperidin-1-yl)(5-(4-fluorophenyl)-2-methylthiazol-4-yl)methanone] it was 16 nM; in that of `C[C@@H]1CCCN(C(=O)c2ccccc2Oc2ccccc2)[C@@H]1CNc1ccc(C(F)(F)F)cn1` (racemic) [Example 118, rac-cis-(3-Methyl-2-(((5-(trifluoromethyl)pyridin-2-yl)amino)methyl)piperidin-1-yl) (2-phenoxyphenyl)methanone], 262 nM.

Take `O=C(NCC1CCC(F)CN1C(=O)c1ccccc1-c1ccccc1)c1cccc2cccnc12` (single isomer, unassigned) [Example 38, N-((1-(Biphenylcarbonyl)-5-fluoropiperidin-2-yl)methyl)quinoline-8-carboxamide]: the IC50 was 4 nM. For the compound `Cc1ccc(-c2ccncc2)c(C(=O)N2CCC[C@@H](C)[C@H]2CNc2ccc(C(F)(F)F)cn2)c1` (racemic) [Example 106, rac-cis-(3-Methyl-2-(((5-(trifluoromethyl)pyridin-2-yl)amino)methyl)piperidin-1-yl)(5-methyl-2-(pyridin-4-yl)phenyl)methanone], the IC50 is 40 nM. Same read-out and setting: next, `COc1cnc(NC[C@@H]2[C@H](C)CCCN2C(=O)c2nc(C)sc2-c2ccc(F)cc2)nc1` (racemic) [Example 88, rac-cis-(2-(((5-Methoxypyrimidin-2-yl)amino)methyl)-3-methylpiperidin-1-yl) (5-(4-fluorophenyl)-2-methylthiazol-4-yl)methanone]: 42 nM. Still for that read-out and setting: in the case of `Cc1nc(-c2ccccc2)c(C(=O)N2CC[C@@H](O)C[C@H]2CNC(=O)c2cccc3cccnc23)s1` [Example 134, N-(((2S,4R)-4-Hydroxy-1-(2-methyl-4-phenylthiazole-5-carbonyl)piperidin-2-yl)methyl)quinoline-8-carboxamide] it was 5 nM. The same measure, in the same setting: next, `Cc1nc(C(=O)N2CC(N)CCC2CNC(=O)c2cccc3cccnc23)c(-c2cccc(F)c2)s1` (racemic) [Example 53, N-((5-Amino-1-(5-(3-fluorophenyl)-2-methylthiazole-4-carbonyl)piperidin-2-yl)methyl)quinoline-8-carboxamide]: 65 nM.
